For assay [1], the target named is T1, recombinant human ALK5 (TGF-βR1) protein (Homo sapiens, UniProt P36897).
T1 construct: purchased Life Technologies PR9075A
T1 sequence (P36897 34-503): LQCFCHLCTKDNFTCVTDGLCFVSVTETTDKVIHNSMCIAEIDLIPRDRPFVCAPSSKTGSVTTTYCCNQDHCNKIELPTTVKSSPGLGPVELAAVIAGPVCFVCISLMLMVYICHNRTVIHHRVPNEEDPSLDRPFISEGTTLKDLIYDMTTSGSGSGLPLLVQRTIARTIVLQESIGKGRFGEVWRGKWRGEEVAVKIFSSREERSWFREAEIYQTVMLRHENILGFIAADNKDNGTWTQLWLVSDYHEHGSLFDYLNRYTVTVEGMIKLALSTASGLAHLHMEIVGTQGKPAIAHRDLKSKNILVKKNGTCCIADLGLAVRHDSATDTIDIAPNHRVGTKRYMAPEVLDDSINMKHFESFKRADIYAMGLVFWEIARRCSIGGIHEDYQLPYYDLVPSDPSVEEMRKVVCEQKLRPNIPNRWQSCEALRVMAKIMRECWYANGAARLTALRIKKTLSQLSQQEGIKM
The experiment in a line: Biochemical ALK5 (TGF-βR1) assay to measure pKi (LANCE Ultra ULight kinase assay). To be noted: apparent pKi, converted from pIC50 using the Cheng-Prusoff equation. The procedure:
Example 254: Biochemical ALK5 (TGF-βR1) Assay to Measure pKi
The assays were performed in a 384-well plate (24 columns×16 wells/rows). An Echo® 550 Liquid Handler (Labcyte) was used to prepare various intermediate concentrations of compounds of the present disclosure in 100% DMSO. From the intermediate concentrations, a range of concentrations (from 10 μM to 25 pM corresponding to volumes up to 105 nL) were prepared and ejected into a final assay plate to be used to create individual dose response curves for each of the subject compounds. To a separate column within the assay plate, 105 nL of DMSO in each well was used to establish a maximum assay signal. Additionally, 105 nL of 100 μM SD-208, a selective TGF-βR1 inhibitor (Catalog #S7624, Selleck Chemicals), was used in another column of wells to establish a minimal assay signal.
With a multidrop dispenser, 8 μL of enzyme mixture (1.25× final) was added to each well. The enzyme mixture consisted of 250 pM ALK5 enzyme and 62.5 nM peptide substrate (LANCE® (lanthanide chelate excite) Ultra ULight™-DNA Topoisomerase 2-alpha (Thr1342)) prepared in assay buffer (50 mM HEPES, 10 mM MgCl2, 1 mM EGTA, 0.01% Tween-20, pH 7.5 at room temperature) with 2 mM DTT added prior to use. The plate was then sealed with an adhesive seal and allowed to equilibrate for 60 minutes at room temperature.
Next, 2 μL of 125 μM ATP (5× final, 125 μM ATP prepared in assay buffer with 2 mM DTT) was added to the incubated mixtures, covered with a MicroClime® Environmental Lid (Product No. LLS-0310, Labcyte) and immediately transferred to 37° C. The reactions were allowed to proceed at 37° C. for 60 minutes before terminating with the addition of 10 μL of detection antibody (LANCE® (lanthanide chelate excite) Ultra Europium-anti-phospo-DNA Topoisomerase 2-alpha (Thr1342)) in detection mixture (12 mM EDTA, 4 nM detection antibody prepared in detection buffer (50 mM Tris-HCl, 150 mM NaCl, 0.5% BSA (Fraction V), pH 7.0)) at room temperature. The plate was then read on a Perkin Elmer EnVision Plate Reader using europium specific reader settings with excitation and emission wavelengths set to 320 or 340 nm and 665 nm, respectively.
For dose-response analyses, percent inhibition versus compound concentrations were plotted, and pIC50 values were determined from a 4-parameter robust fit model with GraphPad Prism V5 Software (GraphPad Software, Inc., La Jolla, Calif.). This model obtains pIC50 values by fitting the sigmodial dose-response (variable slope) equation to the data. Results were expressed as pIC50 (negative logarithm of IC50) and subsequently converted to pKi (negative logarithm of dissociate constant, K) using the Cheng-Prusoff equation.
The higher the value of pKi (lower value of Ki), the greater the inhibition of ALK5 activity.
(TR-FRET usually uses a lanthanide donor and a delayed reading to cut background.)

The test system of assay [2] is TGF-β-stimulated SMAD3 phosphorylation in BEAS-2B cells. As to the kind of experiment: Cellular ALK5 potency assay, inhibition of TGF-β stimulated pSMAD3 formation in BEAS-2B cells. In kind it is cell-based. The note with it: Homo sapiens, inhibition of TGF-β (10 ng/mL) stimulated pSMAD3 formation, 1 hour compound incubation, read-out: BEAS2B pIC50 (converted). The procedure: Example 255: Cellular ALK5 Potency Assay to Measure pIC50, Inhibition of TGF-β Stimulated pSMAD3 Formation in BEAS-2B Cells
The potency of compounds of the present disclosure for inhibition of TGF-β-stimulated SMAD3 phosphorylation was measured in BEAS-2B cells, a human lung epithelial cell line. TGF-β signals through activin receptor-like kinase 5 (ALK5) immediately prior to SMAD3 phosphorylation.
BEAS-2B cells were grown using 50% DMEM (Life Technologies) and 50% F-12 (Life Technologies) media, supplemented with 10% Fetal Bovine Serum (ATCC), 25 mM HEPES (Life Technologies), and 1×Pen-Strep (Life Technologies). Cells were cultured in a humidified incubator set at 37° C., 5% CO2, and trypsonized using 0.25% Trypsin with 0.5% polyvinylpyrrolidone (PVP).
For the assay, BEAS-2B cells were seeded at 7,500 cells/well (25 μL/well) in a 384-well plate and cultured overnight. Before dosing, growth media was aspirated and the wells were rinsed with HBSS Buffer (HBSS with Calcium and Magnesium, Life Technologies) supplemented with 25 mM HEPES (Life Technologies) and 1% Bovine Serum Albumin (Roche). Compounds were serially diluted in DMSO, then further diluted with supplemented HBSS Buffer (50 μL/well) to create a compound plate 3× of the final assay concentration, at 0.3% DMSO. The diluted compounds were then added to the cells (8 μL/well) and incubated at 37° C., 5% CO2 for 1 hour. After the compound incubation, TGF-β (R&D Systems) reconstituted in supplemented HBSS Buffer was added to the cells ([…], final concentration 10 ng/mL) and incubated for a further 30 minutes, after which the cells were immediately lysed with AlphaLISA lysis buffer (PerkinElmer). AlphaLISA Acceptor and Detector beads (PerkinElmer) were added 2 hours apart, then incubated overnight to be read the next day. The potency of the compound was determined through analysis of dose-dependent quantified changes in pSMAD3 signal from baseline (non-compound treated TGF-β stimulated cells). Data are expressed as pIC50 (negative decadic logarithm IC50) values.

Each structure is given as a SMILES string.

For the molecule `Fc1ccc(Cl)cc1-c1n[nH]cc1-c1ccc2ncc(NCC3CN4CCN3CC4)cc2n1` (stereo not shown) [Compound 1-10, 6-[3-(5-chloro-2-fluoro-phenyl)-1H-pyrazol-4-yl]-N-(1,4-diazabicyclo[2.2.2]octan-2-ylmethyl)-1,5-naphthyridin-3-amine], in assay [1], the Ki was 0.0398 to 0.316 nM. In addition, the IC50 in assay [2] was at most 20 nM.
As to `CCN1CCN(CCNc2cnc3ccc(-c4c[nH]nc4-c4cc(Cl)ccc4F)nc3c2)CC1` [Compound 1-11, 6-[3-(5-chloro-2-fluoro-phenyl)-1H-pyrazol-4-yl]-N-[2-(4-ethylpiperazin-1-yl)ethyl]-1,5-naphthyridin-3-amine], in assay [1], the Ki was 0.0398 to 0.316 nM. Also, the IC50 in assay [2] was at most 20 nM.
Taken in the same sequence, the figures for `CN1CCN(CCNc2cnc3ccc(-c4c[nH]nc4-c4cc(Cl)ccc4F)nc3c2)CC1` [Compound 1-12, 6-[3-(5-chloro-2-fluoro-phenyl)-1H-pyrazol-4-yl]-N-[2-(4-methylpiperazin-1-yl)ethyl]-1,5-naphthyridin-3-amine] were 0.0398 to 0.316 nM and at most 20 nM.
For the molecule `CC1(C)CCCN1CCNc1cnc2ccc(-c3c[nH]nc3-c3cc(Cl)ccc3F)nc2c1` [Compound 1-13, 6-[3-(5-chloro-2-fluoro-phenyl)-1H-pyrazol-4-yl]-N-[2-(2,2-dimethylpyrrolidin-1-yl)ethyl]-1,5-naphthyridin-3-amine], in assay [1], the Ki was 0.0398 to 0.316 nM. Further, the IC50 in assay [2] is at most 20 nM.
Taken in the same sequence, the figures for `Fc1ccc(Cl)cc1-c1n[nH]cc1-c1ccc2ncc(NCCN3CCCC3)cc2n1` [Compound 1-14, 6-[3-(5-chloro-2-fluoro-phenyl)-1H-pyrazol-4-yl]-N-(2-pyrrolidin-1-ylethyl)-1,5-naphthyridin-3-amine] were 0.0398 to 0.316 nM and at most 20 nM.
With `Fc1ccc(Cl)cc1-c1n[nH]cc1-c1ccc2ncc(Nc3ccc(N4CCNCC4)cn3)cc2n1` [Compound 1-15, 6-(3-(5-chloro-2-fluorophenyl)-1H-pyrazol-4-yl)-N-(5-(piperazin-1-yl)pyridin-2-yl)-1,5-naphthyridin-3-amine], in assay [1], the Ki was 0.0398 to 0.316 nM. In addition, the IC50 in assay [2] is 25.1 to 158 nM.
Regarding `Fc1ccc(Cl)cc1-c1n[nH]cc1-c1ccc2ncc(NCC3CCNC3)cc2n1` (stereo not shown) [Compound 1-16, 6-[3-(5-chloro-2-fluoro-phenyl)-1H-pyrazol-4-yl]-N-(pyrrolidin-3-ylmethyl)-1,5-naphthyridin-3-amine], the Ki in assay [1] was 0.0398 to 0.316 nM. The IC50 in assay [2] is 25.1 to 158 nM.
`Fc1ccc(Cl)cc1-c1n[nH]cc1-c1ccc2ncc(NCC3CCN3)cc2n1` (stereo not shown) [Compound 1-17, N-(azetidin-2-ylmethyl)-6-[3-(5-chloro-2-fluoro-phenyl)-1H-pyrazol-4-yl]-1,5-naphthyridin-3-amine]: the Ki in assay [1] was 0.0398 to 0.316 nM. Also, the IC50 in assay [2] was 25.1 to 158 nM.
Taken in the same sequence, the figures for `Fc1ccc(Cl)cc1-c1n[nH]cc1-c1ccc2ncc(NC3CNC3)cc2n1` [Compound 1-18, N-(azetidin-3-yl)-6-[3-(5-chloro-2-fluoro-phenyl)-1H-pyrazol-4-yl]-1,5-naphthyridin-3-amine] were 0.0398 to 0.316 nM and 25.1 to 158 nM.
The like results for `Fc1ccc(Cl)cc1-c1n[nH]cc1-c1ccc2ncc(N[C@@H]3CCNC3)cc2n1` [Compound 1-19, 6-[3-(5-chloro-2-fluoro-phenyl)-1H-pyrazol-4-yl]-N-[(3R)-pyrrolidin-3-yl]-1,5-naphthyridin-3-amine] were, in that order, 0.398 to 3.16 nM and 25.1 to 158 nM.
The like results for `Fc1ccc(Cl)cc1-c1n[nH]cc1-c1ccc2ncc(NC[C@@H]3CCCN3)cc2n1` [Compound 1-20, 6-[3-(5-chloro-2-fluoro-phenyl)-1H-pyrazol-4-yl]-N-[[(2S)-pyrrolidin-2-yl]methyl]-1,5-naphthyridin-3-amine] were, in that order, 0.0398 to 0.316 nM and at most 20 nM.
Consider `Fc1ccc(Cl)cc1-c1n[nH]cc1-c1ccc2ncc(NCCN3CCNCC3)cc2n1` [Compound 1-21, 6-[3-(5-chloro-2-fluoro-phenyl)-1H-pyrazol-4-yl]-N-(2-piperazin-1-ylethyl)-1,5-naphthyridin-3-amine], for which the Ki in assay [1] was 0.0398 to 0.316 nM. Moreover, the IC50 in assay [2] is 25.1 to 158 nM.
The like results for `COC(=O)C1CN(CCNc2cnc3ccc(-c4c[nH]nc4-c4cc(Cl)ccc4F)nc3c2)CCN1` (stereo not shown) [Compound 1-22, methyl 4-[2-[[6-[3-(5-chloro-2-fluoro-phenyl)-1H-pyrazol-4-yl]-1,5-naphthyridin-3-yl]amino]ethyl]piperazine-2-carboxylate] were, in that order, 0.0398 to 0.316 nM and 25.1 to 158 nM.
Taken in the same sequence, the figures for `Fc1ccc(Cl)cc1-c1n[nH]cc1-c1ccc2ncc(NCC3CCCCN3)cc2n1` (stereo not shown) [Compound 1-23, 6-[3-(5-chloro-2-fluoro-phenyl)-1H-pyrazol-4-yl]-N-(2-piperidylmethyl)-1,5-naphthyridin-3-amine] were 0.0398 to 0.316 nM and 25.1 to 158 nM.
Taken in the same sequence, the figures for `Fc1ccc(Cl)cc1-c1n[nH]cc1-c1ccc2ncc(NC3CCNCC3)cc2n1` [Compound 1-24, 6-[3-(5-chloro-2-fluoro-phenyl)-1H-pyrazol-4-yl]-N-(4-piperidyl)-1,5-naphthyridin-3-amine] were 0.0398 to 0.316 nM and 25.1 to 158 nM.
On to `Fc1ccc(Cl)cc1-c1n[nH]cc1-c1ccc2ncc(NC3CCCNC3)cc2n1` (stereo not shown) [Compound 1-25, 6-[3-(5-chloro-2-fluoro-phenyl)-1H-pyrazol-4-yl]-N-(3-piperidyl)-1,5-naphthyridin-3-amine], for which the Ki in assay [1] is 0.398 to 3.16 nM. In addition, in assay [2], the IC50 is 25.1 to 158 nM.
The like results for `Fc1ccc(Cl)cc1-c1n[nH]cc1-c1ccc2ncc(NCC3CNCCN3)cc2n1` (stereo not shown) [Compound 1-26, 6-[3-(5-chloro-2-fluoro-phenyl)-1H-pyrazol-4-yl]-N-(piperazin-2-ylmethyl)-1,5-naphthyridin-3-amine] were, in that order, 0.0398 to 0.316 nM and 25.1 to 158 nM.

Values taken from patent publication US11730720B2, “ALK5 inhibitors” (THERAVANCE BIOPHARMA R&D IP, LLC, priority 2018, dated 2023).
